The test system of data set [1] is prostate carcinoma PPC-1 cell line. In words: MTT cell viability assay, prostate carcinoma PPC-1. The class given is cell-based, human. From the text: (§1) The human malignant melanoma cell line IGR39, human triple-negative breast cancer MDA-MB-231, and human pancreatic carcinoma cell line Panc-1 were obtained from the American Type Culture Collection (ATCC, Manassas, VA, USA). Human foreskin fibroblasts (HF) CRL-4001 were originally obtained from ATCC and kindly provided by Prof. Helder Santos (University of Helsinki, Finland). Primary prostate carcinoma PPC-1 cell line was kindly provided by Prof. Tambet Teesalu (University of Tartu, Estonia). All cell lines were cultured in Dulbecco’s Modified Eagle’s GlutaMAX medium (Gibco (Carlsbad, CA, USA)), supplemented with 10,000 U/mL penicillin, 10 mg/mL streptomycin (Gibco), and 10% fetal bovine serum (Gibco). Cell cultures were grown at 37 °C in a humidified atmosphere containing 5% CO2. They were used until the passage of 20.
(§2) The effect of synthesized compounds on cell viability was studied using 3-(4,5-dimethylthiazol-2-yl)-2,5-diphenyltetrazolium bromide (MTT; Sigma-Aldrich Co., St Louis, MO, USA) assay, as described elsewhere. To summarize, the cells were seeded in triplicates in 96-well Corning plates (IGR39, MDA-MB-231, Panc-1 and PPC1: 4 × 10^3 cells/well; HF: 5 × 10^3 cells/well). The cells were treated with 100 μM of tested compounds after 24 h of incubation. After 72 h, the MTT reagent was added and the formazan crystals that had formed were dissolved in DMSO (Sigma-Aldrich Co., St. Louis, MO, USA). The absorbance was determined with a multidetection microplate reader at 570 and 630 nm.
(§3) The compound serial dilutions ranging from 50 µM to 1.56 µM were introduced to the cells. The Hill equation was used to calculate the EC50 value, or the concentration of a compound that results in a 50% reduction in the metabolic activity of cells.

Data set [2] deals with tested cancer cell lines (IGR39, PPC-1, MDA-MB-231, Panc-1). In words: MTT cell viability assay, statements on the tested cancer cell lines together. The class given is cell-based, human. The settings on record: Homo sapiens; against IGR39 and PPC-1 cell lines. The protocol: as §2, §3
A general note: Tetrazolium dyes change colour on reduction, which living cells bring about.

The subject of data set [3] is PPC-1 spheroids (cancer cells with fibroblasts 1:1). As to the kind of experiment: 3D culture: PPC-1 spheroid size and viability (WST-1). The class given is cell-based, human. The settings on record: 5 and 10 µM, 8 days. Here is the method:
(§4) Spheroids were made of cancer cells combined with fibroblast in a 1:1 ratio to better represent the real tumor microenvironment.
(§5) The magnetic 3D Bioprinting method was utilized to form cancer cell spheroids as described elsewhere. In short, the cells at 70% confluency were incubated with Nanoshuttle (n3D Biosciences, Inc., Houston, TX, USA) for 8 h. After that, the cells were trypsinized, centrifuged and seeded into ultra-low attachment 96-well plate at a ratio of 1.5 × 10^3 cancer cells and 1.5 × 10^3 human fibroblasts/well. The plate was incubated for two days at 37 °C in a humidified atmosphere on a magnetic drive. Next, the medium with 5 and 10 µM of selected compounds was added. Photos of spheroids were taken every two days using an Olympus IX73 inverted microscope (OLYMPUS CORPORATION, Tokyo, Japan), and analysis of spheroid size was performed using ImageJ, version 1.53o (National Institutes of Health, Bethesda, MD, USA) and Microsoft Office Excel 2016 software (Microsoft Corporation, Redmond, WA, USA).
(§6) On the last day of experiment, 10 µL of WST-1 reagent (Sigma-Aldrich Co, St. Louis, MO, USA) was added to each well. Following 10-h incubation, 50 µL of liquid from each well was moved to another 96-well plate and the absorbance was measured at 460 and 530 nm.

In data set [4] the test system is IGR39 spheroids (cancer cells with fibroblasts 1:1). As to the kind of experiment: 3D culture: IGR39 spheroid size and viability (WST-1). The class given is cell-based, human. The settings on record: for effect on spheroid growth / size: 5 and 10 µM, 8 days. Here is the method: as §4, §5, §6
Data set [5] relates to human melanoma IGR39 cell line. As to the kind of experiment: MTT cell viability assay, melanoma IGR39. The class given is cell-based. The conditions noted are these: for effect on cell viability compared among the cell lines: 100 µM; for effect on cell viability compared among the cell lines / EC50: 72 h, MTT; for EC50: Homo sapiens, IGR-39, IGR39; for selectivity towards cancer cells compared to fibroblasts: IGR39 (melanoma) vs fibroblasts.
Text: as §1, §2, §3

Data set [6] concerns human triple-negative breast cancer MDA-MB-231 cell line. In words: MTT cell viability assay, MDA-MB-231. The class given is cell-based. The settings on record: 72 h; for EC50: Homo sapiens, MDA-MB-231.
Text: as §1, §2, §3

In data set [7] the test system is human pancreatic carcinoma Panc-1 cell line. In words: MTT cell viability assay, Panc-1. The class given is cell-based.
Text: as §1, §2, §3

The test system of data set [8] is Panc-1 cell migration. As to the kind of experiment: 'Wound healing' migration assay, Panc-1. The class given is cell-based, human. The settings on record: 72 h of incubation. The protocol:
(§7) Cancer cells were seeded at a density of 6 × 10^4 cells/well in 24-well plates. After 48 h of incubation, a 100 µL pipette tip was used to make the scratch in each well. Following a single PBS wash, the fresh medium containing 2 and 5 µM of compounds 5, 6, 13, and 14 was added to the cells. As a negative control, medium containing 0.1% DMSO was employed.

Data set [9] is described as follows: Ferric reducing antioxidant power (FRAP) assay. From the text:
The ferric reducing antioxidant power (FRAP) assay was used to evaluate the antioxidant potential of new compounds 2–17. Antioxidant assays are based on determining reduction power reactions (e.g., reduction Fe^3+ to Fe^2+) or scavenging free radicals (DPPH, ABTS). The FRAP assay is based on the method of single electron transfer (SET), measuring the reduction in the complex of ferric ions (Fe^3+)-ligand to the blue ferrous complex (Fe^2+). This method uses 2,4,6-tripyridyl-s-triazine (TPTZ) as the linking ligand to the iron. The antioxidant activity of the synthesized compounds was compared with that of the well-known antioxidant protocatechuic acid. […] PCA is a building block for pharmaceuticals and is widely used to produce many medicinal products such as veratridine (sodium channel inactivation inhibitor), erlotinib (antineoplastic), Picatin II (treatment of hepatitis B), itopride hydrochloride (gastrointestinal motility drug). PCA can also cause the induction of apoptosis of human leukemia cells. Moreover, the antioxidant activity of PCA is based on the reduction in free radical formation via the up-regulation of genes encoding enzymes with neutralizing activities.
Antioxidant activity was determined as an increase in absorbance at 593 nm, and the results were expressed as of Fe^2+ μmol/L and in relation to antioxidants, and protocatechuic acid, as positive control. The FRAP reagent contained 2.5 mL of 10 mM TPTZ solution in 40 mM HCl as well as 2.5 mL of FeCl3 (20 mM) and 25 mL of acetate buffer (0.3 M, pH = 3.6). Then, 100 μL of analyzed compounds (20 mM) were mixed with 3 mL of the FRAP reagent. The absorbance of the reaction mixture was measured spectrophotometrically at 593 nm using a UV-1280 UV-VIS spectrophotometer (Shimadzu Corporation, Kyoto, Japan). To compose the calibration curve, five concentrations of FeSO4·7H2O (5, 10, 15, 20, 25 μM) were used, and the absorbance was measured as a sample solution.

The test system of data set [10] is IGR39 cell migration. In words: 'Wound healing' migration assay, IGR39. The class given is cell-based, human. The settings on record: 48 h of incubation; control 'wound' completely closed. Here is the method: as §7
The test system of data set [11] is PPC-1 cell migration. In words: 'Wound healing' migration assay, PPC-1. The class given is cell-based, human. The conditions noted are these: 72 h of incubation. The protocol: as §7
Data set [12] relates to melanoma cell. Set-up: method as in PMID 21700700. The settings on record: cited from earlier work.

Structures are written as SMILES.

The term EC50 denotes the concentration giving half of the maximal effect. As usually defined, the melting point is the temperature, or range, at which the solid turns liquid. On to `O=C(NN=Cc1cc(Cl)ccc1O)C1CC(=O)N(c2ccc(Nc3ccccc3)cc2)C1` (stereo not drawn) [Compound 5, N′-(5-chloro-2-hydroxybenzylidene)-5-oxo-1-(4-(phenylamino)phenyl)pyrrolidine-3-carbohydrazide], for which the melting point was in the range of 223 to 224 °C. Also, the “selectivity towards cancer cells compared to fibroblasts” value (“selectivity towards cancer cells” for short) in [1] (prostate carcinoma vs fibroblasts) was 3.6. Further, the EC50 in data set [2] was in the range of 2.5 to 20.2 µM. Further, the “effect on spheroid growth / size” value in data set [3] was “did not affect spheroid growth”. Moreover, in data set [4], the “effect on spheroid growth / size” value was “did not affect spheroid growth”. In [4] (WST-1, end of experiment), the “effect on spheroid viability compared to the control” value (“effect … compared to the control” below) is on record as “statistically significant effect” and the “spheroid cell viability (reduced up to)” value was ~ 75%. The “effect on cell viability compared among the cell lines” value in data set [5] is given as “strongest effect on melanoma cells”.

`O=C(NN=Cc1c[nH]c2ccccc12)C1CC(=O)N(c2ccc(Nc3ccccc3)cc2)C1` (stereo not drawn) [Compound 14, N′-((1H-indol-3-yl)methylene)-5-oxo-1-(4-(phenylamino)phenyl)pyrrolidine-3-carbohydrazide] registered a melting point of 238 to 239 °C. Also, the EC50 in data set [6] is 19.8 ± 1.86 µM. Moreover, the half-maximal effective concentration (EC50) in data set [2] lay within 2.5 to 20.2 µM. Further, in [3], the “effect on spheroid growth / size” value is listed as “slightly reduced the growth”. Further, the “effect on spheroid growth / size” value in data set [4] is reported as “became somewhat larger”. Also, in [5], the “effect on cell viability compared among the cell lines” value was “strongest effect on melanoma cells” and the EC50 was determined as 10.4 ± 1.35 µM.

`O=C(NN=Cc1ccc([N+](=O)[O-])s1)C1CC(=O)N(c2ccc(Nc3ccccc3)cc2)C1` (stereo not drawn) [Compound 13, N′-((5-nitrothiophen-2-yl)methylene)-5-oxo-1-(4-(phenylamino)phenyl)pyrrolidine-3-carbohydrazide] yielded a melting point of 235 to 236 °C. Besides, the “cell viability compared to the control (inhibited up to)” value in data set [7] (100 µM, 72 h, MTT) is reported as ~ 9%. This compound had an EC50 in data set [7] (Homo sapiens, MTT, 72 h, Panc-1) of 5.77 ± 0.8 µM. Further, in data set [7] (Panc-1 vs fibroblasts), the “selectivity towards cancer cells” value worked out at 1.2. Further, the “'wound' area compared to the control (times larger)” value in data set [8] is listed as 7.5 times. For the same compound, the “cell viability compared to the control (inhibited up to)” value in data set [6] (100 µM) is on record as ~ 9%. The same compound showed an EC50 in data set [6] of 5.1 ± 0.8 µM. Besides, the midpoint of the response in data set [1] (Homo sapiens, MTT, 72 h, PPC-1), the EC50, lay at 3.63 ± 0.45 µM. Besides, in [2], the EC50 lay within 2.5 to 20.2 µM. The “FRAP reducing power (Fe^2+)” value in data set [9] (absorbance at 593 nm) was 103.95 µmol/L. Also, the “'wound' area” value in data set [10] amounted to 15.8 ± 8.8%. Further, the “effect … compared to the control” value in [4] (WST-1, end of experiment) is recorded as “statistically significant effect”. Moreover, the “'wound' area compared to the control (times larger)” value in data set [11] was ~ 24 times. Further, in data set [5], the “effect on cell viability compared among the cell lines” value was “strongest effect on melanoma cells”, the EC50 is 2.5 ± 0.46 µM and the “selectivity towards cancer cells” value is 2.8.

In turn, `O=C(NN=Cc1ccc(Cl)c(Cl)c1)C1CC(=O)N(c2ccc(Nc3ccccc3)cc2)C1` (stereo not drawn) [Compound 6, N′-(3,4-dichlorobenzylidene)-5-oxo-1-(4-(phenylamino)phenyl)pyrrolidine-3-carbohydrazide] had a melting point of 220 to 221 °C. The compound also gave an EC50 in data set [2] of 2.5 to 20.2 µM. The “reducing power activity compared to the control antioxidant” value in data set [9] (vs protocatechuic acid) is listed as “higher than those of known antioxidants used as the controls”. In addition, the “effect … compared to the control” value in [4] (WST-1, end of experiment) is “statistically significant effect”. For the same compound, the “effect on cell migration” value in data set [11] (higher concentration (5 µM)) is reported as “inhibited”. In addition, in data set [5], the “effect on cell viability compared among the cell lines” value is “strongest effect on melanoma cells” and the “selectivity towards cancer cells” value is recorded as 2.8.

`CN(C)/N=N/c1[nH]cnc1C(N)=O` [dacarbazine]: the “concentration that inhibits melanoma cell proliferation” value in data set [12] is 25 to 100 µM.

The values above are taken from publication PMC10871122, “Synthesis and In Vitro Evaluation as Potential Anticancer and Antioxidant Agents of Diphenylamine-Pyrrolidin-2-one-Hydrazone Derivatives” (International Journal of Molecular Sciences, 2023).
